Assay [1] relates to Phosphorylation of ERK1/2 in AsPC-1 cells. In words: Phospho-ERK1/2 MSD Assay (AsPC-1 cells). It is filed as cell-based. To be noted: 2 hours treatment, read-out: p-ERK (AsPC-1 cells) IC50. An outline of the steps: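 Read-out: MSD electrochemiluminescent detection of phosphorylated ERK1/2 in whole-cell lysates, fitted to a 4-parameter logistic curve for IC50. Prior to lysis, AsPC-1 cells (25,000 per well) received a 2 h compound dose-response at 37 °C.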

Assay [2] addresses GDP-bound KRAS protein (aa 1-169), containing both G12D and C118A amino acid substitutions (Homo sapiens, UniProt P01116, C118A/G12D). The experiment in a line: KRAS G12D Coupled Nucleotide Exchange Assay. It is filed as biochemical. The following applies: 2 h compound pre-incubation. The protocol: Following compound pre-incubation, purified SOS protein (aa 564-1049) and GTP (Roche 10106399001) were added to the assay wells and incubated for an additional 30 min. […] The assay plates were then read on a PerkinElmer EnVision Multilabel Reader, using AlphaScreen® technology, and data were analyzed using a 4-parameter logistic model to calculate IC50 values.

Assay [3] deals with Phosphorylation of ERK1/2 in A-427 cells. In words: Phospho-ERK1/2 MSD Assay (A-427 cells). In kind it is cell-based. To be noted: 2 h treatment, read-out: p-ERK (A427 cells) IC50. An outline of the steps: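 ERK1/2 phosphorylation measured by Meso Scale whole-cell lysate assay after A-427 cells were exposed to a titration of compound for 2 h at 37 °C.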
Assay [4] concerns the target His-tagged KRAS G12D protein (Homo sapiens, UniProt P01116, G12D). In words: KRAS G12D TR-FRET Assay. It is filed as binding.

Where two headings read alike, the source gives them in different places.

GDP-bound KRAS protein (aa 1-169), containing both G12D and C118A amino acid substitutions, sequence (P01116 1-169 isoform P01116-2 G12D/C118A): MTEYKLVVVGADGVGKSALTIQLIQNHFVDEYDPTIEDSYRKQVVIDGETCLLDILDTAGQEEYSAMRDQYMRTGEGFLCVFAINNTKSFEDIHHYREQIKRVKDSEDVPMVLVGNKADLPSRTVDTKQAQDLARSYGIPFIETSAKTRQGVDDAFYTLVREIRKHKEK
His-tagged KRAS G12D protein, sequence (P01116 1-188 isoform P01116-2 G12D): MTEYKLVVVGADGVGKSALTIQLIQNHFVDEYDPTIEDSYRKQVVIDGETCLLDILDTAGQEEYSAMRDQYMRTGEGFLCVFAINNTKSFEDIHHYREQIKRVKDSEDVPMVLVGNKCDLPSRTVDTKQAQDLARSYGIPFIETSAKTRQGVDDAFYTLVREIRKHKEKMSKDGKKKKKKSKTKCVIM

Consider `Oc1cc(-c2ccc3c(N4C[C@H]5CC[C@@H](C4)N5)nc(OC[C@@]45CCCN4C[C@H](F)C5)nc3c2F)c2c(Cl)cccc2c1` [Example 56, 4-(4-((1R,5S)-3,8-diazabicyclo[3.2. 1]octan-3-yl)-8-fluoro-2-(((2R,7aS)-2-fluorotetrahydro-1H-pyrrolizin-7a(5H)-yl)methoxy)quinazolin-7-yl)-5-chloronaphthalen-2-ol], for which the IC50 is 109 nM in assay [1] (Homo sapiens, ASPC1, 2 h); 23 nM in assay [3] (Homo sapiens, A-427, 2 h); 5 nM in assay [4]. Moreover, the “Avg 2 h Coupled Exchange IC50” value in assay [2] is 4 nM.
Regarding `CCc1c(F)ccc2cc(O)cc(-c3c(F)cc4c(N5[C@@H]6CC[C@H]5CNC6)nc(OC[C@@]56CCCN5C[C@H](F)C6)nc4c3F)c12` [Example 150, 4-(4-((1R,5S)-3,8-diazabicyclo[3.2.1]octan-8-yl)-6,8-difluoro-2-(((2R,7aS)-2-fluorotetrahydro-1H-pyrrolizin-7a(5H)-yl)methoxy)quinazolin-7-yl)-5-ethyl-6-fluoronaphthalen-2-ol], the IC50 in assay [1] (Homo sapiens, ASPC1, 2 h) was found to be 94 nM; in assay [3] (Homo sapiens, A-427, 2 h), 30 nM; in assay [4] it was 3 nM. For the same molecule, in assay [2], the “Avg 2 h Coupled Exchange IC50” value was determined as 3 nM.
For the molecule `C#Cc1cccc2cc(O)cc(-c3c(F)cc4c(N5C[C@H]6C[C@@H](C5)N6)nc(OC[C@@]56CCCN5C[C@H](F)C6)nc4c3F)c12` [Example 183, 4-(4-((1R,5S)-3,6-diazabicyclo[3.1.1]heptan-3-yl)-6,8-difluoro-2-(((2R,7aS)-2-fluorotetrahydro-1H-pyrrolizin-7a(5H)-yl)methoxy)quinazolin-7-yl)-5-ethynylnaphthalen-2-ol], the IC50 is 5400 nM in assay [1] (Homo sapiens, ASPC1, 2 h); 1480 nM in assay [3] (Homo sapiens, A-427, 2 h); 2 nM in assay [4]. Moreover, in assay [2], the “Avg 2 h Coupled Exchange IC50” value is 4 nM.
In the same order, the values of `Cc1cc2[nH]ncc2c(-c2c(F)cc3c(N4C[C@H]5CC[C@@H](C4)N5)nc(OC[C@@]45CCCN4C[C@H](F)C5)nc3c2F)c1Cl` [Example 75, 4-((1R,5S)-3,8-diazabicyclo[3.2. 1]octan-3-yl)-7-(5-chloro-6-methyl-1H-indazol-4-yl)-6,8-difluoro-2-(((2R,7aS)-2-fluorotetrahydro-1H-pyrrolizin-7a(5H)-yl)methoxy) quinazoline] are 297 nM, 139 nM, 5 nM and 3 nM.
As for `N#Cc1cccc2cccc(-c3c(F)cc4c(N5C[C@H]6CC[C@@H](C5)N6)nc(OC[C@@]56CCCN5C[C@H](F)C6)nc4c3F)c12` [Example 60, 8-(4-((1R,5S)-3,8-diazabicyclo[3.2. 1]octan-3-yl)-6,8-difluoro-2-(((2R,7aS)-2-fluorotetrahydro-1H-pyrrolizin-7a(5H)-yl)methoxy)quinazolin-7-yl)-1-naphthonitrile], the IC50 in assay [1] (Homo sapiens, ASPC1, 2 h) was 418 nM; in assay [3] (Homo sapiens, A-427, 2 h) it was 530 nM; in assay [4] it was 8 nM. Further, the “Avg 2 h Coupled Exchange IC50” value in assay [2] is 4 nM.
Take `CCc1c(F)ccc2cc(O)cc(-c3cc(C)c4c(N5C[C@H]6CC[C@@H](C5)N6)nc(OC[C@@]56CCCN5C[C@H](F)C6)nc4c3F)c12` [Example 230]: the IC50 was determined as 68 nM in assay [1], 1 nM in assay [2] (read-out: Avg 2 h Coupled Exchange IC50), 33 nM in assay [3] and 4 nM in assay [4].
On to `CCc1cccc2cc(O)cc(-c3ccc4c(N5C[C@@H]6CC[C@H]5CN6)nc(OC[C@@]56CCCN5C[C@H](F)C6)nc4c3F)c12` [Example 110, 4-(4-((1S,4S)-2,5-diazabicyclo[2.2.2]octan-2-yl)-8-fluoro-2-(((2R,7aS)-2-fluorotetrahydro-1H-pyrrolizin-7a(5H)-yl)methoxy)quinazolin-7-yl)-5-ethylnaphthalen-2-ol], for which the IC50 came to 26 nM in assay [1] (Homo sapiens, ASPC1, 2 h); 10 nM in assay [3] (Homo sapiens, A-427, 2 h); 4 nM in assay [4]. For the same molecule, in assay [2], the “Avg 2 h Coupled Exchange IC50” value came to 3 nM.
As to `CCc1c(F)ccc2cc(O)cc(-c3c(F)cc4c(N5C[C@H]6CC[C@@H](C5)N6)nc(OC[C@@H]5CC(F)(F)CN5)nc4c3F)c12` [Example 217, 4-(4-((1R,5S)-3,8-diazabicyclo[3.2.1]octan-3-yl)-2-(((S)-4,4-difluoropyrrolidin-2-yl)methoxy)-6,8-difluoroquinazolin-7-yl)-5-ethyl-6-fluoronaphthalen-2-ol], the IC50 came to 414 nM in assay [1] (Homo sapiens, ASPC1, 2 h); 218 nM in assay [3] (Homo sapiens, A-427, 2 h); 4 nM in assay [4]. Moreover, in assay [2], the “Avg 2 h Coupled Exchange IC50” value is 4 nM.
As to `Cc1c(Cl)cc2[nH]ncc2c1-c1c(F)cc2c(N3C[C@H]4CC[C@@H](C3)N4)nc(OC[C@@]34CCCN3C[C@H](F)C4)nc2c1F` [Example 74, 4-((1R,5S)-3,8-diazabicyclo[3.2. 1]octan-3-yl)-7-(6-chloro-5-methyl-1H-indazol-4-yl)-6,8-difluoro-2-(((2R,7aS)-2-fluorotetrahydro-1H-pyrrolizin-7a(5H)-yl)methoxy) quinazoline], the IC50 in assay [1] (Homo sapiens, ASPC1, 2 h) was found to be 386 nM; in assay [3] (Homo sapiens, A-427, 2 h) it was 148 nM; in assay [4], 7 nM. Besides, the “Avg 2 h Coupled Exchange IC50” value in assay [2] amounted to 7 nM.
On to `CCc1cccc2cccc(-c3c(F)cc4c(N5C[C@H]6CC[C@@H](C5)N6)nc(OC[C@@]56CCCN5C[C@H](F)C6)nc4c3F)c12` [Example 68, 4-((1R,5S)-3,8-diazabicyclo[3.2. 1]octan-3-yl)-7-(8-ethylnaphthalen-1-yl)-6,8-difluoro-2-(((2R,7aS)-2-fluorotetrahydro-1H-pyrrolizin-7a(5H)-yl)methoxy) quinazoline], for which the half-maximal inhibitory concentration (IC50) is 658 nM in assay [1] (Homo sapiens, ASPC1, 2 h); 732 nM in assay [3] (Homo sapiens, A-427, 2 h); 4 nM in assay [4]. In assay [2], the “Avg 2 h Coupled Exchange IC50” value was determined as 3 nM.
Taken in the same sequence, the figures for `CCc1c(F)ccc2cc(O)cc(-c3c(Cl)cc4c(N5C[C@@H]6CC[C@H]5CN6)nc(OC[C@@]56CCCN5C[C@H](F)C6)nc4c3F)c12` [Example 129, 4-(4-((1S,4S)-2,5-diazabicyclo[2.2.2]octan-2-yl)-6-chloro-8-fluoro-2-(((2R,7aS)-2-fluorotetrahydro-1H-pyrrolizin-7a(5H)-yl)methoxy)quinazolin-7-yl)-5-ethyl-6-fluoronaphthalen-2-ol] were 83 nM, 29 nM, 4 nM and 5 nM.
In the same order, the values of `Oc1ccc(-c2c(F)cc3c(N4C[C@H]5CC[C@@H](C4)N5)nc(OC[C@@]45CCCN4C[C@H](F)C5)nc3c2F)c2ccccc12` [Example 122, 4-(4-((1R,5S)-3,8-diazabicyclo[3.2.1]octan-3-yl)-6,8-difluoro-2-(((2R,7aS)-2-fluorotetrahydro-1H-pyrrolizin-7a(5H)-yl)methoxy)quinazolin-7-yl)naphthalen-1-ol] are 282 nM, 167 nM, 5 nM and 5 nM.
In the same order, the values of `CCc1c(F)ccc2cc(O)cc(-c3c(F)cc4c(N5[C@@H]6CCC[C@H]5CNC6)nc(OC[C@@]56CCCN5C[C@H](F)C6)nc4c3F)c12` [Example 172, 4-(4-((1R,5S)-3,9-diazabicyclo[3.3.1]nonan-9-yl)-6,8-difluoro-2-(((2R,7aS)-2-fluorotetrahydro-1H-pyrrolizin-7a(5H)-yl)methoxy)quinazolin-7-yl)-5-ethyl-6-fluoronaphthalen-2-ol] are 2920 nM, 5430 nM, 85 nM and 36 nM.
As to `Oc1cc(-c2ccc3c(N4C[C@H]5CC[C@@H](C4)N5)nc(OC[C@@]45CCCN4C[C@H](F)C5)nc3c2F)c2ccccc2c1F` [Example 221, 4-(4-((1R,5S)-3,8-diazabicyclo[3.2.1]octan-3-yl)-8-fluoro-2-(((2R,7aS)-2-fluorotetrahydro-1H-pyrrolizin-7a(5H)-yl)methoxy)quinazolin-7-yl)-1-fluoronaphthalen-2-ol], the IC50 in assay [1] (Homo sapiens, ASPC1, 2 h) is 325 nM; in assay [3] (Homo sapiens, A-427, 2 h) it was 139 nM; in assay [4] it was 1 nM. Moreover, the “Avg 2 h Coupled Exchange IC50” value in assay [2] came out at 1 nM.
`Cc1ccc2[nH]nc(C)c2c1-c1c(F)cc2c(N3C[C@H]4CC[C@@H](C3)N4)nc(OC[C@@]34CCCN3C[C@H](F)C4)nc2c1F` [Example 208, 4-((1R,5S)-3,8-diazabicyclo[3.2.1]octan-3-yl)-7-(3,5-dimethyl-1H-indazol-4-yl)-6,8-difluoro-2-(((2R,7aS)-2-fluorotetrahydro-1H-pyrrolizin-7a(5H)-yl)methoxy) quinazoline]: the IC50 was determined as 843 nM in assay [1] (Homo sapiens, ASPC1, 2 h); 484 nM in assay [3] (Homo sapiens, A-427, 2 h); 18 nM in assay [4]. The “Avg 2 h Coupled Exchange IC50” value in assay [2] amounted to 8 nM.
Taken in the same sequence, the figures for `C#Cc1cccc2cc(O)cc(-c3c(F)cc4c(N5C[C@@H]6CC[C@H]5CN6)nc(OC[C@@]56CCCN5C[C@H](F)C6)nc4c3F)c12` [Example 180, 4-(4-((1S,4S)-2,5-diazabicyclo[2.2.2]octan-2-yl)-6,8-difluoro-2-(((2R,7aS)-2-fluorotetrahydro-1H-pyrrolizin-7a(5H)-yl)methoxy)quinazolin-7-yl)-5-ethynylnaphthalen-2-ol] were 18 nM, 3 nM, 3 nM and 4 nM.

Usually IC50 stands for the point on the concentration scale where inhibition reaches its midpoint.

(Values after patent publication US20250059205A1, “Heterocyclic Compounds and Methods of Use” (AMGEN INC., priority 2021, published 2025).)
